Experimental data from article PMC4823954, “From fighting depression to conquering tumors: a novel tricyclic thiazepine compound as a tubulin polymerization inhibitor” (Cell Death & Disease, 2016).

Assays:
Experiment in all cases: KINOMEscan
Assay type in all cases: binding
Details in all cases: read-out: % Ctrl
NIM1 = target: T1, NIM1 (Homo sapiens, UniProt Q8IY84)
T1 construct: purchased DiscoveRx KINOMEscan
Method in brief: (§1)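 Competition binding panel of 442 non-mutant kinases: test compound at 5 and 10 μM competed with an active-site-directed ligand for 1 h with shaking. Bound kinase was eluted with 0.5 μM ligand and quantified by qPCR; %Ctrl = (compound − positive control)/(DMSO − positive control) × 100, lower meaning tighter binding.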

[1] = target: T2, RSK4(Kin.Dom.2-C-terminal) (Homo sapiens, UniProt Q9UK32)
T2 construct: RSK4(Kin.Dom.2-C-terminal); purchased DiscoveRx KINOMEscan
Method in brief: as §1

[2] = target: T3, RPS6KA5(Kin.Dom.1-N-terminal) (Homo sapiens, UniProt O75582)
T3 construct: RPS6KA5(Kin.Dom.1-N-terminal); purchased DiscoveRx KINOMEscan
Method in brief: as §1

PRKCD = target: T4, PRKCD (Homo sapiens, UniProt Q05655)
T4 construct: purchased DiscoveRx KINOMEscan
Method in brief: as §1

MRCKA = target: T5, MRCKA (Homo sapiens, UniProt Q5VT25)
T5 construct: purchased DiscoveRx KINOMEscan
Method in brief: as §1

ERBB4 = target: T6, ERBB4 (Homo sapiens, UniProt Q15303)
T6 construct: purchased DiscoveRx KINOMEscan
Method in brief: as §1

PIP5K1A = target: T7, PIP5K1A (Homo sapiens, UniProt Q99755)
T7 construct: purchased DiscoveRx KINOMEscan
Method in brief: as §1

PIK3CA(E542K) = target: T8, PIK3CA(E542K) (Homo sapiens, UniProt P42336, E542K)
T8 construct: purchased DiscoveRx KINOMEscan

TAOK3 = target: T9, TAOK3 (Homo sapiens, UniProt Q9H2K8)
T9 construct: purchased DiscoveRx KINOMEscan
Method in brief: as §1

PAK7 = target: T10, PAK7 (Homo sapiens, UniProt Q9P286)
T10 construct: purchased DiscoveRx KINOMEscan
Method in brief: as §1

VEGFR2 = target: T11, VEGFR2 (Homo sapiens, UniProt P35968)
T11 construct: purchased DiscoveRx KINOMEscan
Method in brief: as §1

RIOK3 = target: T12, RIOK3 (Homo sapiens, UniProt O14730)
T12 construct: purchased DiscoveRx KINOMEscan
Method in brief: as §1

MAK = target: T13, MAK (Homo sapiens, UniProt P20794)
T13 construct: purchased DiscoveRx KINOMEscan
Method in brief: as §1

BIKE = target: T14, BIKE (Homo sapiens, UniProt Q9NSY1)
T14 construct: purchased DiscoveRx KINOMEscan
Method in brief: as §1

HIPK2 = target: T15, HIPK2 (Homo sapiens, UniProt Q9H2X6)
T15 construct: purchased DiscoveRx KINOMEscan
Method in brief: as §1

KIT = target: T16, KIT (Homo sapiens, UniProt P10721)
T16 construct: purchased DiscoveRx KINOMEscan
Method in brief: as §1

PRKD3 = target: T17, PRKD3 (Homo sapiens, UniProt O94806)
T17 construct: purchased DiscoveRx KINOMEscan
Method in brief: as §1

SBK1 = target: T18, SBK1 (Homo sapiens, UniProt Q52WX2)
T18 construct: purchased DiscoveRx KINOMEscan
Method in brief: as §1

FLT3(N841I) = target: T19, FLT3(N841I) (Homo sapiens, UniProt P36888, N841I)
T19 construct: purchased DiscoveRx KINOMEscan

MKK7 = target: T20, MKK7 (Homo sapiens, UniProt O14733)
T20 construct: purchased DiscoveRx KINOMEscan
Method in brief: as §1

TGFBR2 = target: T21, TGFBR2 (Homo sapiens, UniProt P37173)
T21 construct: purchased DiscoveRx KINOMEscan
Method in brief: as §1

BMX = target: T22, BMX (Homo sapiens, UniProt P51813)
T22 construct: purchased DiscoveRx KINOMEscan
Method in brief: as §1

CDC2L1 = target: T23, CDC2L1 (Homo sapiens, UniProt P21127)
T23 construct: purchased DiscoveRx KINOMEscan
Method in brief: as §1

ABL1-phosphorylated = target: T24, ABL1-phosphorylated (Homo sapiens, UniProt P00519)
T24 construct: purchased DiscoveRx KINOMEscan
Method in brief: as §1

PHKG2 = target: T25, PHKG2 (Homo sapiens, UniProt P15735)
T25 construct: purchased DiscoveRx KINOMEscan
Method in brief: as §1

HPK1 = target: T26, HPK1 (Homo sapiens, UniProt Q92918)
T26 construct: purchased DiscoveRx KINOMEscan
Method in brief: as §1

PIK3CA(H1047Y) = target: T27, PIK3CA(H1047Y) (Homo sapiens, UniProt P42336, H1047Y)
T27 construct: purchased DiscoveRx KINOMEscan

PIK3CB = target: T28, PIK3CB (Homo sapiens, UniProt P42338)
T28 construct: purchased DiscoveRx KINOMEscan
Method in brief: as §1

FGFR2 = target: T29, FGFR2 (Homo sapiens, UniProt P21802)
T29 construct: purchased DiscoveRx KINOMEscan
Method in brief: as §1

T17 sequence (O94806 whole entry): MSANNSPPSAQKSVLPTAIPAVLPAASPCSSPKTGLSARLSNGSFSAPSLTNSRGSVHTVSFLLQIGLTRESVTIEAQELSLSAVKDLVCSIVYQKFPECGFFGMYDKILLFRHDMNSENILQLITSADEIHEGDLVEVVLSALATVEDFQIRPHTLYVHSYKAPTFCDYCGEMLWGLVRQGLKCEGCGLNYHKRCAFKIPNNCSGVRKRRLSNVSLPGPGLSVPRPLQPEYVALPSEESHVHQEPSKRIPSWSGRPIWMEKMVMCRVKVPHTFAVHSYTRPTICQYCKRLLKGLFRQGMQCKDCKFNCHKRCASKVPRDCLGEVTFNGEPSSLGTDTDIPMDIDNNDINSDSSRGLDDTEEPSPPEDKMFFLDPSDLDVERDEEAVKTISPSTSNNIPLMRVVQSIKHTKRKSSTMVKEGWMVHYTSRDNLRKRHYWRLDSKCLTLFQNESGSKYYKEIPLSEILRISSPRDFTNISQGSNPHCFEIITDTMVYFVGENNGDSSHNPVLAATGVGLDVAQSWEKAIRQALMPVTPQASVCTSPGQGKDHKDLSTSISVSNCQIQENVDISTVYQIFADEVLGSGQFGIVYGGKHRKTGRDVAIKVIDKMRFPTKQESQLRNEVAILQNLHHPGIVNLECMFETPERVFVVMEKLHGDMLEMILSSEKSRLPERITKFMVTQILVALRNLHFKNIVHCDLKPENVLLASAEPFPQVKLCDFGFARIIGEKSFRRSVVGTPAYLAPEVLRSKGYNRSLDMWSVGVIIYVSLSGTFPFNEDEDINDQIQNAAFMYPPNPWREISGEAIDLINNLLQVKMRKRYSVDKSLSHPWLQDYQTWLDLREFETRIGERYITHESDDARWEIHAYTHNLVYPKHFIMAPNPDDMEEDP
T12 sequence (O14730 whole entry): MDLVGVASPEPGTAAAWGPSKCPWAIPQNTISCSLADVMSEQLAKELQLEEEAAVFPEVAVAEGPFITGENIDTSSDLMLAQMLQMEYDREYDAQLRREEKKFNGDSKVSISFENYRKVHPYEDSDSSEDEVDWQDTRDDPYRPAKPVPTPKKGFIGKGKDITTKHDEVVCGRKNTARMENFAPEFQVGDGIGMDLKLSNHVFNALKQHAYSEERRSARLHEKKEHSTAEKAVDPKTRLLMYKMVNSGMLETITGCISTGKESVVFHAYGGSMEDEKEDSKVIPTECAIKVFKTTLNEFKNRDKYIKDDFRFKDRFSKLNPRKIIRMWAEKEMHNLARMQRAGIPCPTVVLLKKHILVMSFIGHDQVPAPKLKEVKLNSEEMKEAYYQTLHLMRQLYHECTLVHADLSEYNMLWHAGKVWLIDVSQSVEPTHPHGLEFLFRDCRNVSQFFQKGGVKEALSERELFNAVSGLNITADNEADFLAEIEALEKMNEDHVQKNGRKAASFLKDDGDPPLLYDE
T4 sequence (Q05655 whole entry): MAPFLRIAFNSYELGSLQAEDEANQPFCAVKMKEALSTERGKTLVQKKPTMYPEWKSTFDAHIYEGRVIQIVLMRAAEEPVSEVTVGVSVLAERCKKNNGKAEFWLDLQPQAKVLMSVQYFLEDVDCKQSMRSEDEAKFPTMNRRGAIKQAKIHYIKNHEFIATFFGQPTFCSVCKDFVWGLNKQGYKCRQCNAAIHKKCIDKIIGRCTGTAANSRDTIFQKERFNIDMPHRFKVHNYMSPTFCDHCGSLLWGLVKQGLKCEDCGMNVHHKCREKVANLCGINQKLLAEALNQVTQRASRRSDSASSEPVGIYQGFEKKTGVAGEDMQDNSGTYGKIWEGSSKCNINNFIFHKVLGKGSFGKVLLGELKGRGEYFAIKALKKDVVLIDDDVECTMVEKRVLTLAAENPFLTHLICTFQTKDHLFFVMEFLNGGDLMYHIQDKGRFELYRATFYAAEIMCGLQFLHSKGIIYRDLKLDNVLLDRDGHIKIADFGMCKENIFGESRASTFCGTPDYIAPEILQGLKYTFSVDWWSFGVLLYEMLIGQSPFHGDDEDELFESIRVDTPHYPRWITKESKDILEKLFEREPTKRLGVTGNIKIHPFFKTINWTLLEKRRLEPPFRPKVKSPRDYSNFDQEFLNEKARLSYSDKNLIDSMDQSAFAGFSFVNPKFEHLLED
T14 sequence (Q9NSY1 whole entry): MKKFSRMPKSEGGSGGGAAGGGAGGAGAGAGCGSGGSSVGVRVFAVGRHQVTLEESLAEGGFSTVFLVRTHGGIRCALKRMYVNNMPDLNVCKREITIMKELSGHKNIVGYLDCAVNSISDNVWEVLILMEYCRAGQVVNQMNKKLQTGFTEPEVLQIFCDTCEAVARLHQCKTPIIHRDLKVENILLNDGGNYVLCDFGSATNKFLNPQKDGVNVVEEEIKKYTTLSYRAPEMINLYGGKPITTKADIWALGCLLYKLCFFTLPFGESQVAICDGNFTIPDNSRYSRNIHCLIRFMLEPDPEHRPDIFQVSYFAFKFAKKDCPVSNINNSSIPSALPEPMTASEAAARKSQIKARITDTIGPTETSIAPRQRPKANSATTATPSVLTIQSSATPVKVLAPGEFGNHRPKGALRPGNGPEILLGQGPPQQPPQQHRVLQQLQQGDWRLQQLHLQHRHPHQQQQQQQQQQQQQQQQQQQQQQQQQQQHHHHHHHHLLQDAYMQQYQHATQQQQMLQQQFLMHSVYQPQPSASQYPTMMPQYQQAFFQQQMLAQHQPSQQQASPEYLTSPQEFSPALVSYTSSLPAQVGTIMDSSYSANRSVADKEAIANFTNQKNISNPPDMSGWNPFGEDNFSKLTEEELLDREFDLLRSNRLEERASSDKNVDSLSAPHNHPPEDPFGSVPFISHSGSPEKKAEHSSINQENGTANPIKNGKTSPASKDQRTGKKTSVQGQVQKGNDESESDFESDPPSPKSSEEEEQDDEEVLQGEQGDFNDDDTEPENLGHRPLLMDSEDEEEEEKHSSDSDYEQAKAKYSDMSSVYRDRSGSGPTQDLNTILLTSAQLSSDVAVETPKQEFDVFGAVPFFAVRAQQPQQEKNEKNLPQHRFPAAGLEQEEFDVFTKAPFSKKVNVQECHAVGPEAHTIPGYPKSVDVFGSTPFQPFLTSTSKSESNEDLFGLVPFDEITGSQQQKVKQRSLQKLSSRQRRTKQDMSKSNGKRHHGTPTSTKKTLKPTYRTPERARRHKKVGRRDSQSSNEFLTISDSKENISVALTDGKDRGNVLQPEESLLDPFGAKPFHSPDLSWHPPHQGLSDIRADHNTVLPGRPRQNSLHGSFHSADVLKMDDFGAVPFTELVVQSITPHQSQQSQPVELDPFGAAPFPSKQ
T1 sequence (Q8IY84 whole entry): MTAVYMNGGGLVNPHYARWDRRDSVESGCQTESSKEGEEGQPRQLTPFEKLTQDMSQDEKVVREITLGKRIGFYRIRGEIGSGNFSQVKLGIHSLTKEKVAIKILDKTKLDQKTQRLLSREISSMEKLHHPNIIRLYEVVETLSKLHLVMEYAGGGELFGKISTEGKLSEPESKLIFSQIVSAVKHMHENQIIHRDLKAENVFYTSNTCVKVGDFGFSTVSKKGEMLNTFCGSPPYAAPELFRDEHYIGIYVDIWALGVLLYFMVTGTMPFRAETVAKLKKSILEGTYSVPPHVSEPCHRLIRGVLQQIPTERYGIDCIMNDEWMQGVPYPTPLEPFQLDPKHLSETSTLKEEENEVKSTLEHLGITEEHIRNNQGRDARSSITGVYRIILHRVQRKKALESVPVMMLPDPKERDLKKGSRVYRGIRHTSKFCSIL
T18 sequence (Q52WX2 whole entry): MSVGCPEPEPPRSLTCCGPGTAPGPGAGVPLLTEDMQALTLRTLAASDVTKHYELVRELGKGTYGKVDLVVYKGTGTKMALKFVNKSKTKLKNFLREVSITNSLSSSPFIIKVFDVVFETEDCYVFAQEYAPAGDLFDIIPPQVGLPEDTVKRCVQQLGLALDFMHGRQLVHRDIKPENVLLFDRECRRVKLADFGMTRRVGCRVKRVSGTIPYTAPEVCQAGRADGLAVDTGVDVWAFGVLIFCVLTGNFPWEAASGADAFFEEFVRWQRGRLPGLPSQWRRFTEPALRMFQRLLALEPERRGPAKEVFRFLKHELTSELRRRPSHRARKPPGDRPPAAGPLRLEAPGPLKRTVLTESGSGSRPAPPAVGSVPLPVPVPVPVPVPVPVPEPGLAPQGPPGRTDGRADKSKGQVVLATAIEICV
T2 sequence (Q9UK32 401-745 limits assumed): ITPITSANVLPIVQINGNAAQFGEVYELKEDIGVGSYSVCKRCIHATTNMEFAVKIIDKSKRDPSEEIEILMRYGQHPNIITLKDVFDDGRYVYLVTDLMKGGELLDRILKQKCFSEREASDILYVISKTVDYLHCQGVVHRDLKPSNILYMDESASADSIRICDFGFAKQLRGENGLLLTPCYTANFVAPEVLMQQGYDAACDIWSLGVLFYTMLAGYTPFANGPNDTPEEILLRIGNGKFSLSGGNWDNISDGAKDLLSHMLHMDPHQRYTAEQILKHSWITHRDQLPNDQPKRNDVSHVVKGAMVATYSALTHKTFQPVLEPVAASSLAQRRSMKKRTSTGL
T20 sequence (O14733 whole entry): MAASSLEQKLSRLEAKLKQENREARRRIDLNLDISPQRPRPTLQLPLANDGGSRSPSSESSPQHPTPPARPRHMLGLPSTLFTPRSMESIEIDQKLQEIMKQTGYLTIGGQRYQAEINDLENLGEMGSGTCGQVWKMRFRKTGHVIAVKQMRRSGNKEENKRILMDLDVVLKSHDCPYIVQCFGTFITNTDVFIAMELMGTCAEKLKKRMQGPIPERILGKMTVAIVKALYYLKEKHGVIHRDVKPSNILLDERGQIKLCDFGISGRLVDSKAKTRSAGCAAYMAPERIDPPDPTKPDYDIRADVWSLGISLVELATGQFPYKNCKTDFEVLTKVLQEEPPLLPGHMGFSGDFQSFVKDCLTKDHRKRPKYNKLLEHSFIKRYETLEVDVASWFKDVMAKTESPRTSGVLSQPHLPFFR

Cc1ccc(C2=Nc3cccnc3S(=O)(=O)c3ccccc32)cc1 [TBPT, 6-(p-tolyl)benzo[f] pyrido[2,3-b][1,4] thiazepine 11,11-dioxide]
57%: remaining binding at 10 µM ([1]; 10 μM)
93%: remaining binding at 5 µM (ERBB4; 5 μM) | remaining binding at 5 µM (PIK3CA(E542K); 5 μM) | remaining binding at 10 µM (BIKE; 10 μM) | remaining binding at 10 µM (BMX; 10 μM) | remaining binding at 5 µM (HPK1; 5 μM) | remaining binding at 5 µM (FGFR2; 5 μM)
95%: remaining binding at 10 µM (PAK7; 10 μM) | remaining binding at 5 µM (VEGFR2; 5 μM) | remaining binding at 5 µM (PIK3CA(H1047Y); 5 μM)
78%: remaining binding at 10 µM (NIM1; 10 μM) | remaining binding at 5 µM (PAK7; 5 μM) | remaining binding at 10 µM (PRKD3; 10 μM)
100%: remaining binding at 5 µM ([2]; 5 μM) | remaining binding at 10 µM ([2]; 10 μM) | remaining binding at 10 µM (PRKCD; 10 μM) | remaining binding at 10 µM (PIP5K1A; 10 μM) | remaining binding at 10 µM (TAOK3; 10 μM) | remaining binding at 5 µM (RIOK3; 5 μM) | remaining binding at 10 µM (RIOK3; 10 μM) | remaining binding at 10 µM (MAK; 10 μM) | remaining binding at 5 µM (HIPK2; 5 μM) | remaining binding at 10 µM (HIPK2; 10 μM) | remaining binding at 10 µM (KIT; 10 μM) | remaining binding at 5 µM (PRKD3; 5 μM) | remaining binding at 5 µM (SBK1; 5 μM) | remaining binding at 10 µM (FLT3(N841I); 10 μM) | remaining binding at 5 µM (MKK7; 5 μM) | remaining binding at 10 µM (MKK7; 10 μM) | remaining binding at 5 µM (TGFBR2; 5 μM) | remaining binding at 10 µM (CDC2L1; 10 μM) | remaining binding at 5 µM (PHKG2; 5 μM) | remaining binding at 10 µM (PHKG2; 10 μM) | remaining binding at 10 µM (HPK1; 10 μM) | remaining binding at 10 µM (PIK3CA(H1047Y); 10 μM) | remaining binding at 10 µM (PIK3CB; 10 μM) | remaining binding at 10 µM (FGFR2; 10 μM)
87%: remaining binding at 5 µM (BIKE; 5 μM)
92%: remaining binding at 5 µM (BMX; 5 μM)
36%: remaining binding at 5 µM (PIK3CB; 5 μM)
84%: remaining binding at 10 µM (VEGFR2; 10 μM)
90%: remaining binding at 5 µM (NIM1; 5 μM)
98%: remaining binding at 5 µM (PIP5K1A; 5 μM)
72%: remaining binding at 5 µM (PRKCD; 5 μM) | remaining binding at 5 µM (KIT; 5 μM) | remaining binding at 5 µM (ABL1-phosphorylated; 5 μM)
97%: remaining binding at 10 µM (PIK3CA(E542K); 10 μM) | remaining binding at 10 µM (ABL1-phosphorylated; 10 μM)
85%: remaining binding at 10 µM (SBK1; 10 μM) | remaining binding at 5 µM (FLT3(N841I); 5 μM)
94%: remaining binding at 5 µM ([1]; 5 μM) | remaining binding at 5 µM (MAK; 5 μM)
99%: remaining binding at 10 µM (MRCKA; 10 μM) | remaining binding at 10 µM (ERBB4; 10 μM) | remaining binding at 5 µM (CDC2L1; 5 μM)
81%: remaining binding at 10 µM (TGFBR2; 10 μM)
89%: remaining binding at 5 µM (MRCKA; 5 μM) | remaining binding at 5 µM (TAOK3; 5 μM)
